Test results taken from US4268630A, “Microbiological production of ketones from C3 -C6 alkanes” (priority 1979, dated 1981).
Where two headings read alike, the source gives them in different places.

Assays:
Pichia sp. NRRL-Y-11328 = experiment: Oxidation of sec-alcohols to ketones by cell suspensions of yeasts; type: cell-based
[1] = system: Pseudomonas sp. ATCC 21439; experiment: Oxidation of sec-alcohols to ketones by resting cell suspension; type: cell-based; settings: methanol-grown, obligate
Protocol: (§1) The pH of the nutrient medium was adjusted to 7.0 by the addition of acid or base and 50 ml. samples of the nutrient medium were charged into a plurality of 300 ml. shaker flasks. The shaker flasks were inoculated with an inoculating loop of cells from an agar plate containing homogeneous colonies of the microorganisms on the plate (the purity of the isolates was confirmed by microscopic examination). The isolates had been maintained on methanol (0.4% V/V) agar plates or on agar plates under an atmosphere of methane and air having a 1:1 V/V gas ratio which had been transferred every two weeks. For growth on methanol, the medium was supplemented with 0.4% methanol. For growth on methane, the gaseous phase of the inoculated flasks was replaced with a gas mixture comprised on methane and air having a ratio of 1:1 on a V/V basis. The inoculated flasks were sealed air-tight and were incubated on a rotary shaker of orbital radius 2.5 cm. at 250 rpm and at 30° C. for two days until turbidity in the medium had developed. The cells were harvested by centrifugation at 10,000×g. at 4° C. for 30 minutes. The cell pellet was washed twice with a 0.05 M phosphate buffer at a pH of 7.0 (containing 0.02 M MgCl2). The washed cells were then suspended in a 0.05 M phosphate buffer at pH 7.0.
(§2) A 0.5 ml. sample of each washed cell suspension (2 mg. cells) was put into 10 ml. vials at 4° C. which were sealed with a rubber cap. The gaseous phase of the vials was removed with vacuum and then was replaced with a gas mixture of the substrate reactant (i.e., alkane or secondary alcohol) and oxygen at a 1:1 V/V ratio. (In the case of a liquid substrate, i.e., secondary alcohol, 10 μl of the substrate was put in the 10 ml. vials). […] Samples of product (1-3 μl) were withdrawn periodically with a microsyringe and the products were analyzed by gas chromatography (ionization flame detector column).
(§3) The procedure in Example 1 was repeated except that a plurality of methanol-utilizing methylotrophic microorganisms were each aerobically grown in a methanol-containing nutrient medium instead of a methane-containing medium. The nutrients in the medium were the same as indicated in Example 1 except that 0.4% V/V methanol was used as the alcohol dehydrogenase inducer and as the major carbon and energy source for growth. The cells were harvested and washed as described in Example 1. The resting microbial cells of the induced methanol-grown methanol-utilizing methylotrophic microorganisms were then contacted with C3 -C6 secondary alcohols in a buffered solution by the procedure of Example 1.

[2] = system: Pseudomonas MS ATCC 25262; experiment: as above; type: cell-based; settings: methanol-grown, facultative
Protocol: as §1, §2, §3

[3] = system: cell extracts of Torulopsis sp. strain A1 NRRL Y-11,419; experiment: NAD+-dependent oxidation of secondary alcohols by cell extracts of yeasts; type: biochemical; settings: for Conversion Rate, secondary alcohol to methylketone: cell extracts, grown on methanol, NAD+, gas chromatography
[4] = system: Kloeckera sp. Strain A2 (NRRL Y-11,420); experiment: Oxidation of sec-alcohols to ketones by cell suspensions of yeasts; type: cell-based
[5] = system: cell extracts of Hansenula polymorpha ATCC 26,012; experiment: NAD+-dependent oxidation of secondary alcohols by cell extracts of yeasts; type: biochemical; settings: for Conversion Rate, secondary alcohol to methylketone: cell extracts, grown on methanol, NAD+, gas chromatography
[6] = system: Candida utilis ATCC 26387; experiment: Oxidation of sec-alcohols to ketones by cell suspensions of yeasts; type: cell-based
[7] = system: cell-free soluble extract of Methylobacterium organophilum CRL 26 (NRRL B-11,222); experiment: Oxidation of secondary alcohols by cell-free soluble extract (NAD added); type: biochemical; settings: soluble crude extract, grown on methanol
Protocol: (§4) To prepare the cell-free secondary alcohol dehydrogenase (SADH) system, the washed cells were disrupted with a Wave Energy Ultrasonic Oscillator, Model W201 (Wave Energy System, Inc., Newtown, Pa.) and centrifuged at 20,000× g. for 30 minutes. […] The enzyme activity was measured with a fluorescence spectrophotometer (Perkin Elmer, Model MPF 44A) by following the formation of reduced NAD (EX 340 nm, Em 460 nm). The formation of reduced NAD was also followed with an absorption spectrophotometer at 340 nm. The assay system (3 ml.) contained: potassium phosphate buffer pH 7.0; 150 μmol.; NAD 1 μmol.; a given amount of enzyme preparation; and secondary alcohol 10 μmol. The reaction was started by the addition of substrate. One unit of enzyme activity represents the reduction of one μmole NAD per minute. Protein concentrations were determined by the Lowry method (J. Biol. Chem., 193: 255-275 (1951)).
(§5) The experimental procedure for the tests reported in Table VIII were as follows: 1 mg protein of crude extract was added into a 0.5 ml. 0.05 M phosphate buffer (pH 7.0) in a 10-ml. vial. […] The reaction mixture was incubated at 30° C. on a water bath. A 3 μl sample was removed with a syringe at 15 min. of incubation and was assayed with g.l.c. Catalytic activity was also assayed by fluorescence spectrophotometry.

[8] = system: cell-free soluble extract of Methylosinus trichosporium OB3b (NRRL B-11,196); experiment: as above; type: biochemical; settings: soluble crude extract, grown on methanol
Protocol: as §4, §5

[9] = system: cell-free soluble extract of Pseudomonas sp. CRL 75 (ATCC 21,439); experiment: as above; type: biochemical; settings: soluble crude extract, grown on methanol
Protocol: as §4, §5

[10] = system: cell-free soluble extract of Methylococcus capsulatus CRL M1 (NRRL B-11,219); experiment: as above; type: biochemical; settings: soluble crude extract, grown on methanol
Protocol: as §4, §5

[11] = system: Pseudomonas sp. ATCC 21438; experiment: Oxidation of sec-alcohols to ketones by resting cell suspension; type: cell-based
Protocol: as §1, §2, §3
(§6) The procedure in Example 1 was repeated except that the methylotrophic microorganisms were each aerobically grown in an alcohol dehydrogenase-inducing growth medium containing methylamine or methyl formate as the alcohol dehydrogenase enzyme inducer and growth substrate instead of methane. The nutrients in the medium were the same as indicated in Example 1 except that 0.4% V/V of the alcohol dehydrogenase-inducer growth substrate was used as the major carbon and energy source. The cells were harvested and washed as described in Example 1. The resting microbial cells were then contacted with C3 -C6 secondary alcohols in a buffered solution by the conversion procedure of Example 1.

[12] = system: Methanomonas methylovora ATCC 21852; experiment: as above; type: cell-based
Protocol: as §1, §2, §3, §6

[13] = system: secondary alcohol dehydrogenase; experiment: Activity of purified yeast-derived secondary alcohol dehydrogenase; type: biochemical, Pichia sp. NRRL Y-11,328
[14] = spectrophotometric, 2-butanol as substrate

| SMILES | Conversion Rate, sec-alcohol to ketone (Pichia sp. NRRL-Y-11328; growth substrate Ethanol) | Conversion Rate, sec-alcohol to ketone (Pichia sp. NRRL-Y-11328; growth substrate Methanol) | Conversion Rate, sec-alcohol to ketone (Pichia sp. NRRL-Y-11328; growth substrate Methylamine) | Conversion Rate, sec-alcohol to ketone (Pichia sp. NRRL-Y-11328; growth substrate Methylformate) | Conversion Rate, sec-alcohol to ketone (Pichia sp. NRRL-Y-11328; growth substrate Propylamine) | Conversion Rates, sec-alcohol to methyl ketone [1] | Conversion Rates, sec-alcohol to methyl ketone [2] | Conversion Rate, secondary alcohol to methylketone [3] | Conversion Rate, sec-alcohol to ketone ([4]; growth substrate Ethanol) | Conversion Rate, sec-alcohol to ketone ([4]; growth substrate Methanol) | Conversion Rate, sec-alcohol to ketone ([4]; growth substrate Methylamine) | Conversion Rate, sec-alcohol to ketone ([4]; growth substrate Methylformate) | Conversion Rate, sec-alcohol to ketone ([4]; growth substrate Propylamine) | Conversion Rate, secondary alcohol to methylketone [5] | Conversion Rate, sec-alcohol to ketone ([6]; growth substrate Ethanol) | Conversion Rate, sec-alcohol to ketone ([6]; growth substrate Methanol) | Conversion Rate, sec-alcohol to ketone ([6]; growth substrate Methylamine) | Conversion Rate, sec-alcohol to ketone ([6]; growth substrate Methylformate) | Conversion Rate, sec-alcohol to ketone ([6]; growth substrate Propylamine) | Oxidation Rate, sec-alcohol to methyl ketone [7] | further results |
| --- | --- | --- | --- | --- | --- | --- | --- | --- | --- | --- | --- | --- | --- | --- | --- | --- | --- | --- | --- | --- | --- |
| CCC(C)O (centres unmarked) [2-Butanol, 2-butanol] | 6.2 μmoles/hr/mg of protein | 6.8 μmoles/hr/mg of protein | 5.1 μmoles/hr/mg of protein | 6.9 μmoles/hr/mg of protein | 2.1 μmoles/hr/mg of protein | 4.7 μmoles/hr/mg protein | 3.5 μmoles/hr/mg protein | 4.9 μmoles/hr/mg Protein | 5.7 μmoles/hr/mg of protein | 5.9 μmoles/hr/mg of protein | 5.4 μmoles/hr/mg of protein | 5.9 μmoles/hr/mg of protein | 4.2 μmoles/hr/mg of protein | 5.2 μmoles/hr/mg Protein | 5.2 μmoles/hr/mg of protein | 6.8 μmoles/hr/mg of protein | 5.0 μmoles/hr/mg of protein | 6.2 μmoles/hr/mg of protein | 4.2 μmoles/hr/mg of protein | 2.5 nmole/min/mg protein | specific activities [3, 14]: 62 nmoles NAD^+ reduced per min. per mg. protein; specific activities [5, 14]: 85 nmoles NAD^+ reduced per min. per mg. protein; Oxidation Rate, sec-alcohol to methyl ketone [8]: 2.4 nmole/min/mg protein; Oxidation Rate, sec-alcohol to methyl ketone [9]: 25.0 nmole/min/mg protein; Oxidation Rate, sec-alcohol to methyl ketone [10]: 2.0 nmole/min/mg protein; Conversion Rates, sec-alcohol to methyl ketone ([11]; methanol-grown, facultative): 3.2 μmoles/hr/mg protein; Conversion Rates, sec-alcohol to methyl ketone ([11]; methyl formate-grown): 3.2 μmoles/hr/mg protein; Conversion Rates, sec-alcohol to methyl ketone ([11]; methylamine-grown): 2.1 μmoles/hr/mg protein; Conversion Rates, sec-alcohol to methyl ketone ([12]; methanol-grown, obligate): 2.5 μmoles/hr/mg protein; Conversion Rates, sec-alcohol to methyl ketone ([12]; methyl formate-grown): 2.1 μmoles/hr/mg protein; Conversion Rates, sec-alcohol to methyl ketone ([12]; methylamine-grown): 3.2 μmoles/hr/mg protein; substrate specificity of purified yeast secondary alcohol dehydrogenase (in words) [13]: catalyzed the oxidation |
| CCCCC(C)O (centres unmarked) [2-Hexanol, 2-hexanol] | 0.28 μmoles/hr/mg of protein | 0.50 μmoles/hr/mg of protein | 0.31 μmoles/hr/mg of protein | 0.48 μmoles/hr/mg of protein | 0.21 μmoles/hr/mg of protein | 0.03 μmoles/hr/mg protein | 0.80 μmoles/hr/mg protein | 0.21 μmoles/hr/mg Protein | 0.12 μmoles/hr/mg of protein | 0.25 μmoles/hr/mg of protein | 0.10 μmoles/hr/mg of protein | 0.28 μmoles/hr/mg of protein | 0.11 μmoles/hr/mg of protein | 0.51 μmoles/hr/mg Protein | 0.72 μmoles/hr/mg of protein | 0.8 μmoles/hr/mg of protein | 0.61 μmoles/hr/mg of protein | 0.75 μmoles/hr/mg of protein | 0.52 μmoles/hr/mg of protein | 0 nmole/min/mg protein | Oxidation Rate, sec-alcohol to methyl ketone [8]: 0 nmole/min/mg protein; Oxidation Rate, sec-alcohol to methyl ketone [9]: 0 nmole/min/mg protein; Oxidation Rate, sec-alcohol to methyl ketone [10]: 0 nmole/min/mg protein; Conversion Rates, sec-alcohol to methyl ketone ([11]; methanol-grown, facultative): 0.7 μmoles/hr/mg protein; Conversion Rates, sec-alcohol to methyl ketone ([11]; methyl formate-grown): 0.80 μmoles/hr/mg protein; Conversion Rates, sec-alcohol to methyl ketone ([11]; methylamine-grown): 0.07 μmoles/hr/mg protein; Conversion Rates, sec-alcohol to methyl ketone ([12]; methanol-grown, obligate): 1.0 μmoles/hr/mg protein; Conversion Rates, sec-alcohol to methyl ketone ([12]; methyl formate-grown): 0.60 μmoles/hr/mg protein; Conversion Rates, sec-alcohol to methyl ketone ([12]; methylamine-grown): 0.09 μmoles/hr/mg protein; substrate specificity of purified yeast secondary alcohol dehydrogenase (in words) ([13]; spectrophotometric): catalyzed the oxidation |
| CCCC(C)O (centres unmarked) [2-Pentanol, 2-pentanol] | 1.0 μmoles/hr/mg of protein | 1.2 μmoles/hr/mg of protein | 0.72 μmoles/hr/mg of protein | 0.98 μmoles/hr/mg of protein | 0.60 μmoles/hr/mg of protein | 0.05 μmoles/hr/mg protein | 2.1 μmoles/hr/mg protein | 1.0 μmoles/hr/mg Protein | 1.0 μmoles/hr/mg of protein | 1.2 μmoles/hr/mg of protein | 1.0 μmoles/hr/mg of protein | 1.2 μmoles/hr/mg of protein | 0.92 μmoles/hr/mg of protein | 1.0 μmoles/hr/mg Protein | 1.0 μmoles/hr/mg of protein | 1.5 μmoles/hr/mg of protein | 1.2 μmoles/hr/mg of protein | 1.3 μmoles/hr/mg of protein | 0.9 μmoles/hr/mg of protein | 0.1 nmole/min/mg protein | Oxidation Rate, sec-alcohol to methyl ketone [8]: 0.1 nmole/min/mg protein; Oxidation Rate, sec-alcohol to methyl ketone [9]: 1.2 nmole/min/mg protein; Oxidation Rate, sec-alcohol to methyl ketone [10]: 0.1 nmole/min/mg protein; Conversion Rates, sec-alcohol to methyl ketone ([11]; methanol-grown, facultative): 2.7 μmoles/hr/mg protein; Conversion Rates, sec-alcohol to methyl ketone ([11]; methyl formate-grown): 2.0 μmoles/hr/mg protein; Conversion Rates, sec-alcohol to methyl ketone ([11]; methylamine-grown): 0.82 μmoles/hr/mg protein; Conversion Rates, sec-alcohol to methyl ketone ([12]; methanol-grown, obligate): 2.1 μmoles/hr/mg protein; Conversion Rates, sec-alcohol to methyl ketone ([12]; methyl formate-grown): 1.5 μmoles/hr/mg protein; Conversion Rates, sec-alcohol to methyl ketone ([12]; methylamine-grown): 1.0 μmoles/hr/mg protein; substrate specificity of purified yeast secondary alcohol dehydrogenase (in words) ([13]; spectrophotometric): catalyzed the oxidation |
